# Data: the supplement of paper PMC10307832
# Columns and labels:
# Test in all cases: relative viability (nuclei count vs DMSO), 5 days (fraction); higher = more cells survive
# [1] = compound: Cc1nc(C(=O)NCC(=O)O)c(O)c2ccc(Oc3ccccc3)cc12 [FG-4592] + Nc1nc2[nH]cc(CCc3ccc(C(=O)N[C@@H](CCC(=O)O)C(=O)O)cc3)c2c(=O)[nH]1 [Pemetrexed] (partner 0.2 µM)
# Method in brief: (§1)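 After 5 days of treatment, lung cancer cells in 1536-well plates were fixed and stained in a single step (final 0.05% Triton X-100, 1% formaldehyde, 1 ug/ml Hoechst) and their nuclei counted on 4× images. Treatment had been applied by pin tool the day after seeding as one drug alone or as a fixed anchor-drug dose with five library-drug doses (not always all listed) in √10 steps. Relative viability is the nuclei count of treated wells divided by that of vehicle wells, and values are medians of duplicate plates.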
# [2] = compound: Cc1nc(C(=O)NCC(=O)O)c(O)c2ccc(Oc3ccccc3)cc12 [FG-4592] + COc1cccc2cc(-c3nc([C@H]4CC[C@H](C(=O)O)CC4)n4ncnc(N)c34)[nH]c12 [OSI-027] (partner 0.5 µM)
# Method in brief: as §1
# [3] = compound: CC1=CC(=C(N1C2=CC=C(C=C2)Cl)C)C(=O)CN3CCCCC3 [IU1-47] + COc1cc2c(Oc3ccc(NC(=O)C4(C(=O)Nc5ccc(F)cc5)CC4)cc3F)ccnc2cc1OCCCN1CCOCC1 [Foretinib] (partner 0.25 µM)
# Method in brief: as §1
# [4] = compound: Cc1nc(C(=O)NCC(=O)O)c(O)c2ccc(Oc3ccccc3)cc12 [FG-4592] + CS(=O)(=O)CCNCc1ccc(-c2ccc3ncnc(Nc4ccc(OCc5cccc(F)c5)c(Cl)c4)c3c2)o1 [Lapatinib] (partner 2 µM)
# Method in brief: as §1
Cell Line,relative viability ([1]; first compound 0.08 µM),relative viability ([1]; first compound 0.253 µM),relative viability ([1]; first compound 0.8 µM),relative viability ([1]; first compound 2.53 µM),relative viability ([1]; first compound 8 µM),relative viability ([2]; first compound 0.08 µM),relative viability ([2]; first compound 0.253 µM),relative viability ([2]; first compound 0.8 µM),relative viability ([2]; first compound 2.53 µM),relative viability ([2]; first compound 8 µM),relative viability ([3]; first compound 0.08 µM),relative viability ([3]; first compound 0.253 µM),relative viability ([3]; first compound 0.8 µM),relative viability ([3]; first compound 2.53 µM),relative viability ([3]; first compound 8 µM),relative viability ([4]; first compound 0.08 µM),relative viability ([4]; first compound 0.253 µM),relative viability ([4]; first compound 0.8 µM),relative viability ([4]; first compound 2.53 µM),relative viability ([4]; first compound 8 µM)
LCLC-103H,0.435,0.456,0.51,0.478,0.457,0.445,0.45,0.455,0.421,0.373,0.786,0.864,0.846,0.73,0.865,–,–,–,–,–
NCI-H441,0.267,0.343,0.272,0.296,0.248,0.589,0.537,0.621,0.465,0.563,0.873,1.15,0.986,1.13,0.864,–,–,–,–,–
NCI-H522,1.11,0.878,–,0.728,0.869,0.739,0.738,0.727,0.594,0.574,–,–,–,–,–,–,–,–,–,–
NCI-H727,–,–,–,–,–,0.41,0.46,0.596,0.524,0.593,1.05,0.988,0.871,1.02,0.987,0.632,0.809,0.742,0.754,0.863
NCI-H1299,–,–,–,–,–,–,–,–,–,–,1.1,1.11,1.09,1.18,1.01,0.969,0.941,0.981,0.954,0.988
NCI-H1623,–,–,–,–,–,0.447,0.447,0.468,0.416,0.419,1.05,0.903,0.892,0.841,0.833,–,–,–,–,–
NCI-H1648,0.753,0.786,–,0.595,1.12,0.275,0.285,0.302,0.258,0.28,–,–,–,–,–,–,–,–,–,–
NCI-H1703,–,–,–,–,–,–,–,–,–,–,0.342,0.315,0.278,0.377,0.361,1.11,0.881,1.11,0.966,0.936
NCI-H1792,0.691,0.76,–,0.619,0.651,0.803,0.69,0.794,0.575,0.735,–,–,–,–,–,0.859,0.785,0.908,0.86,0.849
NCI-H2342,0.682,0.767,0.77,0.8,0.738,0.594,0.648,0.631,0.585,0.57,1.24,1.06,0.935,1.07,1.03,–,–,–,–,–
SW 900,–,0.48,–,0.493,0.487,0.424,0.546,0.493,0.491,0.534,1.24,0.849,0.852,1.18,0.734,–,–,–,–,–
